Measurements: US20240100062A1, “Methods of Treatment With an Iboga Alkaloid” (priority 2022, published 2024)

Legend:
[1] = tested on: special operations veterans; test: Brief Visuospatial Memory Test-Revised (BVMT-R), Example 1 study; type: in vivo, human
[2] = tested on: special operations veterans; test: Wechsler Adult Intelligence Scale (WAIS-IV) PSI and WMI, Example 1 study; type: in vivo, human
[3] = tested on: special operations veterans; test: WHODAS 2.0 disability assessment, Example 1 study; type: in vivo, human; settings: for WHODAS 2.0 Self Care subscale, mean: baseline 5.2% ± 9.2%; for WHODAS 2.0 Mobility subscale, mean: baseline 14.7% ± 15.7%
Protocol: (§1) With subjects in the fasting state, an intravenous infusion of 1 gram of magnesium sulfate was administered 1-2 hours prior to treatment. […] Medical staff (MD, RN, or EMT) were onsite at a ratio of at least 1 staff per 2 patients throughout treatment for monitoring and management, but no specific coaching or psychological support was provided during treatment.
(§2) Post treatment, each subject was assessed four days after treatment, one month after treatment, and, if willing, one year after treatment. The post-treatment assessments conducted at four days and at one month after treatment included neuropsychological testing, measures of PTSD, depression, anxiety, mystical experiences, functional imaging and EEG. Post-treatment assessments conducted at one year after treatment included PTSD, depression, and anxiety measures.
World Health Organization Disability Assessment Scale 2.0 (WHODAS 2.0) was used as a measure of function. WHODAS was used to assess the impact of health conditions across six life domains (cognition, mobility, self-care, interpersonal, life activities, and community participation) and it is sensitive to change over time (Gold, L. H., J. Am. Acad. Psychiatry Law 42, 9 (2014). Each item in the assessment is rated on a scale ranging from no problems to extreme problems (Üstün, T. B. et al., Measuring health and disability: Manual for WHO disability assessment schedule WHODAS 2.0. (World Health Organization, 2010)). To capture inter-individual variability in disability the WHODAS complex scoring method was used. Raw scores were converted to a metric ranging from 0 (no disability) to 100 (full disability), by calculating the ratio of the participant's score relative to the maximum possible score in each domain as well as to the total score (Id.). A score of 20%-39% was considered mild, 40%-59% was moderate, 60%-79% was moderate-severe and 80%-100% was severe. Scores from baseline were compared to scores from one-month post treatment.

[4] = tested on: special operations veterans; test: CAPS-5 clinician-administered PTSD scale, Example 1 study; type: in vivo, human; settings: for CAPS-5 score, mean: p(FDR) <0.001
Protocol: as §1, §2
(§3) Clinician administered scales included CAPS-5 (Clinician-administered PTSD Scale for DSM-5), which is a gold standard assessment of PTSD symptom severity; MADRS (Montgomery-Asberg Depression Rating Scale), a measure for depressive symptom severity; and Hamilton-Anxiety Rating Scale (HAM-A) (Shear, M. K. et al., Depress. Anxiety 13, 166-178 (2001)) a measure for anxiety symptom severity; SCID-5 (Structured Clinical Interview for DSM-5) Overview for a historical and environmental context of symptom presentation; MINI DSM-5 (Mini International Neuropsychiatric Interview from DSM-5) for a structured psychodiagnostics assessment; BAT-L (Boston Assessment of TBI—Lifetime) for a lifetime history of TBI and blast exposure; and Ohio State University TBI Identification Method (Short Form) for a lifetime history of TBI. MADRS testing provides an indication of depressive symptoms, CAPS-5 provides an indication of PTSD and SIGH-A provides an indication of anxiety. Collectively these overlap to provide indication of mood, concentration, sleep and tension.
For the CAPS-5, the test version with a […] structured interview of PTSD symptoms over the past week was used, using a 0 (“Absent”) to 4 (“Extreme/Incapacitating”) scale, with possible total scores ranging from 0 to 80. The score range 23 to 34 is considered moderate PTSD while a higher score represents severe PTSD (Weathers, F. W. et al., Psychol. Assess. 30, 383-395 (2018)).

[5] = tested on: special operations veterans; test: Hamilton Anxiety Rating Scale (HAM-A), Example 1 study; type: in vivo, human; settings: for HAM-A score, mean: p(FDR) <0.001
Protocol: as §1, §2, §3
To assess anxiety symptoms, the Hamilton Anxiety Rating Scale was used. This scale includes 14-items assessing both psychic and physical symptoms of anxiety. Items are rated on a scale from 0 (no symptoms) to 4 (severe symptoms). Total score ranges were: no or minimal anxiety (≤7), mild (8-14), moderate (15-23), and severe anxiety symptoms (≥24) (Matza et al., Int. J Methods Psychiatr. Res. 19, 223-232 (2010)).

[6] = tested on: special operations veterans; test: Resting-state fMRI functional connectivity (Example 2); type: in vivo, human; settings: within a few days after treatment; persisted to one-month post treatment; 5000 pairs tested
Description: The human brain is a series of well-organized and optimized series of efficient networks. Disease states can be characterized as abnormalities or inefficiencies in the networks and/or the global organization. Resting-state functional connectivity is one method to characterize disease states and effects of interventions. The functional connectivity networks evaluated in a region of interest in the brain included those identified in Table 2-1 of Example 2.
The subjects were asked to clear their mind of any particular thoughts in order to capture the brain at rest or in its ‘default’ state. An a priori region of interest was determined for analysis and 5000 functional connectivity pairs were tested. The underlying alteration in brain patterns (connectivity) due to an intervention was evaluated.

[7] = tested on: N-methyl-D-aspartate, kappa and mu opioid, sigma-1 and -2, nicotinic acetylcholine, serotonin transporter, and dopamine transporter; settings: cited from earlier work

For CCC1CC2CC3c4[nH]c5ccc(OC)cc5c4CCN(C2)C13 (stereo not drawn) [ibogaine, Ibogaine], the “Visuospatial Memory (BVMT-R), D” value ([1]; baseline vs 1-month post) was 0.32, the “Visuospatial Memory (BVMT-R), D” value ([1]; baseline vs 1-wk post) was 0.50 and the Visual memory improvement ([1]; both timepoints) was “significant improvement in visual memory at both timepoints”. For the same compound, the “Working Memory (WMI, WAIS-IV), mean ± SD” value ([2]; 1-wk post, baseline 55.1 ± 8.3, p(FDR) 0.034) was 57.0 ± 9.5 T score, the “Working Memory (WMI, WAIS-IV), D” value ([2]; baseline vs 1-month post) was 0.31 and the “Processing Speed (PSI, WAIS-IV), D” value ([2]; baseline vs 1-wk post) was 0.97. For the same compound, the “Working Memory (WMI, WAIS-IV), D” value ([2]; baseline vs 1-wk post) was 0.37, the “WHODAS 2.0 Mobility subscale, D” value ([3]; Baseline vs One-Month) was 0.83 and the “WHODAS 2.0 Self Care subscale, D” value ([3]; Baseline vs One-Month) was 0.51. The “WHODAS 2.0 Cognition subscale, D” value ([3]; Baseline vs Post-Treatment) was 0.96, the “WHODAS 2.0 Community Participation subscale, D” value ([3]; Baseline vs Post-Treatment) was 0.53 and the “WHODAS 2.0 Interpersonal subscale, D” value ([3]; Baseline vs Post-Treatment) was 0.60. The “WHODAS 2.0 Life Activities subscale, D” value ([3]; Baseline vs Post-Treatment) was 0.48, the “WHODAS 2.0 Mobility subscale, D” value ([3]; Baseline vs Post-Treatment) was 0.53 and the “WHODAS 2.0 Self Care subscale, D” value ([3]; Baseline vs Post-Treatment) was 0.37. The “WHODAS 2.0 Self Care subscale, mean” value ([3]; One-Month, SD 2.9%, p(FDR) 0.009) was 1.0% ±, the “WHODAS 2.0 Mobility subscale, mean” value ([3]; One-Month, SD 3.3%, p(FDR) <0.001) was 1.3% ± and the “WHODAS 2.0 Cognition subscale, mean” value ([3]; One-Month, SD 7.9%, baseline 36.1% ± 14.6%, p(FDR) <0.001) was 5.0% ±. For the same compound, the “WHODAS 2.0 Interpersonal subscale, mean” value ([3]; One-Month, SD 9.5%, baseline 32.3% ± 20.4, p(FDR) <0.001) was 4.8% ±, the “WHODAS 2.0 Community Participation subscale, mean” value ([3]; One-Month, SD 13.1%, baseline 35.6% ± 21.1%, p(FDR) <0.001) was 5.9% ± and the “WHODAS 2.0 Life Activities subscale, mean” value ([3]; One-Month, SD 16.2%, baseline 41.1% ± 24.8%, p(FDR) <0.001) was 9.1% ±. The “WHODAS 2.0 Self Care subscale, mean” value ([3]; Post-Treatment, SD 4.7%, p(FDR) 0.028) was 1.9% ±, the “WHODAS 2.0 Mobility subscale, mean” value ([3]; Post-Treatment, SD 13.5%, p(FDR) 0.001) was 7.2% ± and the Functioning ([3]; immediately and one-month post-treatment) was “clinically and statistically significant improvements in functioning”. The “CAPS-5 score, mean” value ([4]; 1-mo. post, SD 8.1, baseline 31.7 ± 13.0, N 28, only participants with mild TBI) was 4.8, the “CAPS-5 score, mean” value ([4]; 1-mo. post, SD 8.7, baseline 35.7 ± 11.0, N 23, only participants meeting diagnostic criteria per MINI at baseline) was 6.0 and the “CAPS-5 % Reduction vs Baseline, mean” value ([4]; 1-mo. post, SD 17%, only participants with mild TBI) was 88% ±. For the same compound, the “CAPS-5 % Reduction vs Baseline, mean” value ([4]; 1-mo. post, SD 19%, only participants meeting diagnostic criteria per MINI) was 86% ±, the “CAPS-5 score, mean” value ([4]; 1-wk post, SD 5.2, baseline 35.7 ± 11.0, N 23, only participants meeting diagnostic criteria per MINI at baseline) was 4.4 and the “CAPS-5 score, mean” value ([4]; 1-wk. post, SD 4.5, baseline 31.7 ± 13.0, N 28, only participants with mild TBI) was 3.6. The “CAPS-5 % Reduction vs Baseline, mean” value ([4]; 1-wk. post, SD 14%, only participants with mild TBI) was 89% ±, the “CAPS-5 % Reduction vs Baseline, mean” value ([4]; 1-wk. post, SD 17%, only participants meeting diagnostic criteria per MINI) was 87% ± and the “HAM-A score, mean” value ([5]; 1-mo. post, SD 4.6, baseline 20.7 ± 8.6, N 28, only participants with mild TBI) was 3.7. The “HAM-A score, mean” value ([5]; 1-mo. post, SD 6.3, baseline 23.8 ± 7.6, N 14, only participants meeting diagnostic criteria per MINI at baseline) was 5.1, the “HAM-A % Reduction vs Baseline, mean” value ([5]; 1-mo. post, SD 21%, only participants with mild TBI) was 82% ± and the “HAM-A % Reduction vs Baseline, mean” value ([5]; 1-mo. post, SD 23%, only participants meeting diagnostic criteria per MINI) was 80% ±. The “HAM-A score, mean” value ([5]; 1-wk post, SD 3.4, baseline 23.8 ± 7.6, N 14, only participants meeting diagnostic criteria per MINI at baseline) was 4.2, the “HAM-A score, mean” value ([5]; 1-wk. post, SD 3.3, baseline 20.7 ± 8.6, N 28, only participants with mild TBI) was 3.3 and the “HAM-A % Reduction vs Baseline, mean” value ([5]; 1-wk. post, SD 14%, only participants meeting diagnostic criteria per MINI) was 82% ±. For the same compound, the “HAM-A % Reduction vs Baseline, mean” value ([5]; 1-wk. post, SD 19%, only participants with mild TBI) was 82% ±, the “Reorganization of functional connection pairs in the brain networks, number of pairs” value [6] was 22 and the “Affinity for neurotransmitter receptors” value [7] was “moderate-to-weak affinity”.
